Source: patent publication US5981181A, “DNA sequences with oligosaccharide transporter, plasmids bacteria and plants containing a transporter as well as a process for the preparation and transformation of yeast strains for identification of the transporter” (Hoechst Schering AgrEvo GmbH, priority 1992, dated 1999)

Key:
[1] = biological target: T1, sucrose transporter from spinach (Spinacia oleracea, UniProt Q03411); assay: cell-based
T1 construct: which contain, as inserts, the cDNA for the sucrose transporter from spinach; expressed in transfected cells; host or cells: Saccharomyces cerevisiae YSH2.64-1A suc- with integrated potato sucrose synthase (susy), transformed with YEplac112A1NE-S21
T1 sequence (Q03411 1-525): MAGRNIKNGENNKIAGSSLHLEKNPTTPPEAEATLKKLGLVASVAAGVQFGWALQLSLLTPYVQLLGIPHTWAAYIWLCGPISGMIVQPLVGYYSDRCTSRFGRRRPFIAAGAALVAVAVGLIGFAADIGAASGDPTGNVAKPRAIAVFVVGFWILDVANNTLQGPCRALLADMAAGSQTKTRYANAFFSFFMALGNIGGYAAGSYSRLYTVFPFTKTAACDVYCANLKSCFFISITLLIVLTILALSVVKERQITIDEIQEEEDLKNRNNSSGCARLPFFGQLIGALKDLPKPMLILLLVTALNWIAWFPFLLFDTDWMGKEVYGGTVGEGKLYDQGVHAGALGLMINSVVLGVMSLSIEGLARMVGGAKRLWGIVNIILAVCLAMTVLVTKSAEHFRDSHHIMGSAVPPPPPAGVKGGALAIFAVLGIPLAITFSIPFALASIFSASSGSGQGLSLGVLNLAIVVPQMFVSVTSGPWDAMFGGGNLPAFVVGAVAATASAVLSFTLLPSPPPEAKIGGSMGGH
Protocol: Time pattern of the uptake of sucrose in yeast cells. "pmol/mg cells"=amount of the ^14 C-labelled sucrose in pmol taken up in relation to the moisture weight of the yeast cells per mg; "112"=starting strain (without transporter); "+Glucose"=pre-incubation of the cells in a medium of 10 mM glucose; "-Glucose"=no pre-incubation of the cells; […], carbonyl cyanide m-chlorophenylhydrazone (CCCP) in a concentration of 2.5 μM; […] p-chloromercuribenzenesulfonicacid (PCMBS) in a concentration of 500 μM; […] antimycin in a concentration of 10 μM.
After centrifuging the culture, the cells were subjected to a pre-incubation for 5 minutes in a glucose containing medium and then taken up in a medium containing ^14 C-labelled sucrose. The uptake of the labelled sucrose was measured by the process described by Cirillo (1989, Meth Enzymol 174: 617-622). The uptake of the labelled sucrose without preincubation with glucose was compared with that with co-incubation with the inhibitors carbonyl cyanide m-chlorophenylhydrazone(CCCP), p-chloromercuribenzenesulfonic acid (PCMBS) and antimycin.

[2] = biological target: T1, sucrose transporter from spinach; assay: Competition experiment with various sugars as competitor for the labelled sucrose in yeast YEplac112A1NE-S21; assay type: cell-based; settings: in relation to YEplac112A1NE-S21 control = 100; for activity at 2000 µM: 2mM competitor; for activity at 2000 µM / activity at 10000 µM: read-out: sucrose transport (%)
Protocol: The yeast transformand YEplac112A1NE-S21, corresponding to that obtained in Example 2, was grown in liquid medium until the culture had reached the logarithmic phase. After centrifuging the culture, the cells were subjected to a pre-incubation for 5 minutes in a glucose containing medium and then taken up in a medium containing ^14 C-labelled sucrose. The uptake of the labelled sucrose was measured by the process described by Cirillo (1989, Meth Enzymol 174: 617-622). The uptake of the labelled sucrose without preincubation with glucose was compared with that with co-incubation with the inhibitors carbonyl cyanide m-chlorophenylhydrazone(CCCP), p-chloromercuribenzenesulfonic acid (PCMBS) and antimycin. The calculated reduction of the sucrose uptake by the inhibitors is shown in table I. A competition experiment with various sugars as competitor for the labelled sucrose, from which the specificity of the transporter can be read off, is shown in table II.

[3] = test system: sucrose transport through the membrane; settings: plasma membranes; Slone & Buckhout, 1991; cited from earlier work
[4] = read-out: sucrose transport (%)

For O=[N+]([O-])c1ccc(O)c([N+](=O)[O-])c1 [2,4-DNP, 2,4dinitrophenol], which activity at 25 µM [1, 4] is on record?
The activity at 25 µM was 61%.

What about the activity at 100 µM [1, 4] of the same compound?
The activity at 100 µM was 9%.

What does the source list for N#CC(C#N)=NNc1cccc(Cl)c1 [CCCP, carbonyl cyanide m-chlorophenylhydrazone]?
activity at 0.5 µM ([1]; 0.5μM inhibitor, in relation to YEplac112A1NE-S21 control = 100, read-out: sucrose transport (%)): 65%; activity at 2.5 µM ([1]; 2.5μM inhibitor, in relation to YEplac112A1NE-S21 control = 100, read-out: sucrose transport (%)): 21%

What does the source list for O=S(=O)(O)c1cc[c]([Hg][Cl])cc1 [PCMBS, p-chloromercuribenzenesulfonic acid]?
sucrose transport (%) ([1]; 25μM inhibitor, in relation to YEplac112A1NE-S21 control = 100): 73%; sucrose transport (%) ([1]; 100μM inhibitor, in relation to YEplac112A1NE-S21 control = 100): 21%

With OC[C@H]1O[C@@H](O[C@H]2[C@H](O)[C@@H](O)C(O)O[C@@H]2CO)[C@H](O)[C@@H](O)[C@H]1O (some centres unmarked) [lactose] as the compound, how does the activity at 2000 µM [2] read?
The activity at 2000 µM was 91%.

Which results are given for OC[C@H]1O[C@H](O[C@H]2[C@H](O)[C@@H](O)[C@H](O)O[C@@H]2CO)[C@H](O)[C@@H](O)[C@@H]1O [maltose]?
activity at 2000 µM [2]: 58%; activity at 10000 µM ([2]; 10mM competitor): 37%

For OC[C@H]1O[C@H](OC[C@H]2OC(O)(CO)[C@@H](O)[C@@H]2O)[C@H](O)[C@@H](O)[C@@H]1O (some centres unmarked) [palatinose], which “sucrose transport (%)” value ([2]; 10mM competitor) is on record?
The value was 102%.

With OC[C@H]1OC(Oc2ccccc2)[C@H](O)[C@@H](O)[C@@H]1O (some centres unmarked) [phenylglucoside] as the compound, how does the activity at 2000 µM [2] read?
The activity at 2000 µM was 7%.

Which activity at 2000 µM [2] does the source give for O=C(CCc1ccc(O)cc1)c1c(O)cc(O)cc1O[C@@H]1O[C@H](CO)[C@@H](O)[C@H](O)[C@H]1O [phloridzin] here?
The activity at 2000 µM was 16%.

Which “sucrose transport (%)” value ([1]; 1mM inhibitor, in relation to YEplac112A1NE-S21 control = 100) does the source give for O=[As]([O-])([O-])O.[Na+].[Na+] [sodium arsenate] here?
The value was 34%.

Which results are given for OC[C@H]1O[C@@](CO)(O[C@H]2O[C@H](CO)[C@@H](O)[C@H](O)[C@H]2O)[C@@H](O)[C@@H]1O [sucrose]?
Km [3]: ~1000 µM; activity at 2000 µM [2]: 28%

For OC[C@H]1O[C@H](O[C@H]2O[C@H](CO)[C@@H](O)[C@H](O)[C@H]2O)[C@H](O)[C@@H](O)[C@@H]1O [trehalose], which activity at 10000 µM ([2]; 10mM competitor) is on record?
The activity at 10000 µM was 103%.

For antimycin A, which “sucrose transport (%)” value ([1]; 10μM inhibitor, in relation to YEplac112A1NE-S21 control = 100) is on record?
Its value is 59%.
